The results in this text go back to patent US12613236B2, “Lung fibrosis model and methods of using the same” (DUKE UNIVERSITY, priority 2019, dated 2026).

One experiment deals with TP53 signaling. The experiment can be described thus: Nutlin-3a treatment after bleomycin injury in Sftpc-CreER; R26R-tdTomato mice, AGER immunostaining. As to conditions: uninjured (PBS) mice that received Nutlin-3a; 20 mg kg-1 d-1 intraperitoneal for ten days.
For another experiment, the target named is T1, Runx1 (Mus musculus, UniProt Q03347).
T1 construct: Lipofibroblasts were cultured in the presence of Ro 5-3335 and TGF-B for 48 hours; endogenous in cells; host or cells: primary lung lipofibroblasts (mouse, inferred) in culture
T1 sequence (Q03347 whole entry): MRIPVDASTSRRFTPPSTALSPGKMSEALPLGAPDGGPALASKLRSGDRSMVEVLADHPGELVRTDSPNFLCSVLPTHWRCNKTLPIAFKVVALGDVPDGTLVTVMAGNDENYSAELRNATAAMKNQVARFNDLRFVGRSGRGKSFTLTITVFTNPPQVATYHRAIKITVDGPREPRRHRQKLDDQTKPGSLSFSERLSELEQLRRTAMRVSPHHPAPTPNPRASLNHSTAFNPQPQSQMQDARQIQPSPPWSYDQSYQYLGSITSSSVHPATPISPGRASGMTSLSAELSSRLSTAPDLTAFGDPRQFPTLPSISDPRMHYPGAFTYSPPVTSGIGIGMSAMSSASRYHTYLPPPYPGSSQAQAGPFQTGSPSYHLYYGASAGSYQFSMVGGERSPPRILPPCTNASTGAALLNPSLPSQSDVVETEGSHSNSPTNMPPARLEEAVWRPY
The experiment can be described thus: Lipofibroblast culture with TGF-B induced myofibrogenesis, Runx1 pharmacologic inhibition. The format is cell-based. As to conditions: lipofibroblasts cultured in the presence of Ro 5-3335 and TGF-B for 48 hours.

For `COc1ccc(C2=N[C@@H](c3ccc(Cl)cc3)[C@@H](c3ccc(Cl)cc3)N2C(=O)N2CCNC(=O)C2)c(OC(C)C)c1` [Nutlin-3a], the “AGER+Sftpc-tdt+ cells in uninjured lungs” value in the experiment with TP53 signaling is given as “no AGER+Sftpc-tdt+ cells”.
In the case of `O=C1CN=C(c2ccc[nH]2)c2cc(Cl)ccc2N1` [Ro 5-3335], on Runx1, the “PDGFRA expression and cell shape of lipofibroblasts” value is “maintained PDGFRA expression and their stellate shape”; the “aSMA expression and myofibrotic conversion” value was “virtually no aSMA expression and myofibrotic conversion”.
